Data published in ChEMBL document CHEMBL1154969, “LXXLL peptide mimetics as inhibitors of the interaction of vitamin D receptor with coactivators” (Bioorg Med Chem Lett, 2010).
One block for each compound: values may come before it.

What was measured:
[1] = molecular target: T1, Estrogen receptor beta (Homo sapiens, UniProt Q92731); experiment: Antagonist activity at human recombinant ERbeta LBD expressed in HEK293 cells assessed as inhibition of 0.3 nM estradiol-induced transcriptional activation at 30 uM after 16 to 18 hrs by GAL4-dependent luciferase reporter gene assay; assay type: functional, cell-based
T1 sequence (Q92731 whole entry, the tested form may be a part): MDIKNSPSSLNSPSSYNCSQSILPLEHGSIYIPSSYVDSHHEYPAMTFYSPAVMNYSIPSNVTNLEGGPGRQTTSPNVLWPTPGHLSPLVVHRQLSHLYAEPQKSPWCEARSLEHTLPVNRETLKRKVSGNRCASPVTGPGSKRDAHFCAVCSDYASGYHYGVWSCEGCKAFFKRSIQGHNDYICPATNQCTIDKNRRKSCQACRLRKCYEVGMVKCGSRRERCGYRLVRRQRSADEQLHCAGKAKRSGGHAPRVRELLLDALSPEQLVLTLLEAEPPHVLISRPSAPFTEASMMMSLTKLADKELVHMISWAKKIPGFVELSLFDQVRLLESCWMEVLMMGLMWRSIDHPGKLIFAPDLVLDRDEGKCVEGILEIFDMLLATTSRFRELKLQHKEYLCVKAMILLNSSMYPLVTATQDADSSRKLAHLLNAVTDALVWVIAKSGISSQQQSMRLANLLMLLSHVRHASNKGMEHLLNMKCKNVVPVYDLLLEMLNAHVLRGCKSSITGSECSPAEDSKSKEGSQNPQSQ

[2] = molecular target: T1, Estrogen receptor beta; experiment: Antagonist activity at human recombinant ERbeta LBD expressed in HEK293 cells assessed as inhibition of 0.3 nM estradiol-induced transcriptional activation after 16 to 18 hrs by GAL4-dependent luciferase reporter gene assay; assay type: functional, cell-based
[3] = molecular target: T2, Vitamin D3 receptor (Homo sapiens) (UniProt P11473); experiment: Displacement of 1,25-dihydroxyvitamin D3 from GST-tagged VDR ligand binding domain assessed as inhibition of interaction with coactivator proteins at 30 uM by TR-FRET assay
T2 sequence (whole entry): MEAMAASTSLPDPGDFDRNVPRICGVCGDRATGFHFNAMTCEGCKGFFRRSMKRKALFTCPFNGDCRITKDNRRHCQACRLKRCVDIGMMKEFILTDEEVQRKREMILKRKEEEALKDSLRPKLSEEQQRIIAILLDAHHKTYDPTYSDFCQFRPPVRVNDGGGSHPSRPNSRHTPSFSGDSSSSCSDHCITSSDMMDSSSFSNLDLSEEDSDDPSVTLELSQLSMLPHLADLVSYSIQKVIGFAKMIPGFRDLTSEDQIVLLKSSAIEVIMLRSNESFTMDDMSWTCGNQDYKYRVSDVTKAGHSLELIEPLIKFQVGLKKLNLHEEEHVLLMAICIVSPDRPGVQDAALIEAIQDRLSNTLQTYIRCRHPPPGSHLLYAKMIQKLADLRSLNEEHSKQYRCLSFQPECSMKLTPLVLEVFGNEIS

[4] = molecular target: T3, Vitamin D3 receptor (Homo sapiens, UniProt P11473); experiment: Antagonist activity at human recombinant VDR LBD expressed in HEK293 cells assessed as inhibition of 3 nM 1,25-(OH)2D3-induced transcriptional activation after 16 to 18 hrs by GAL4-dependent luciferase reporter gene assay; assay type: functional, cell-based
T3 sequence (P11473 whole entry): T2 sequence (whole entry)

[5] = molecular target: T3, Vitamin D3 receptor; experiment: Displacement of 1,25-dihydroxyvitamin D3 from GST-tagged VDR ligand binding domain assessed as inhibition of interaction with coactivator proteins by TR-FRET assay
[6] = molecular target: T2, Vitamin D3 receptor (Homo sapiens); experiment: Antagonist activity at human recombinant VDR LBD expressed in HEK293 cells assessed as inhibition of 3 nM 1,25-(OH)2D3-induced transcriptional activation at 30 uM after 16 to 18 hrs by GAL4-dependent luciferase reporter gene assay; assay type: functional, cell-based
[7] = molecular target: T4, Estrogen receptor (Homo sapiens, UniProt P03372); experiment: Antagonist activity at human recombinant ERalpha LBD expressed in HEK293 cells assessed as inhibition of 0.3 nM estradiol-induced transcriptional activation after 16 to 18 hrs by GAL4-dependent luciferase reporter gene assay; assay type: functional, cell-based
T4 sequence (P03372 whole entry): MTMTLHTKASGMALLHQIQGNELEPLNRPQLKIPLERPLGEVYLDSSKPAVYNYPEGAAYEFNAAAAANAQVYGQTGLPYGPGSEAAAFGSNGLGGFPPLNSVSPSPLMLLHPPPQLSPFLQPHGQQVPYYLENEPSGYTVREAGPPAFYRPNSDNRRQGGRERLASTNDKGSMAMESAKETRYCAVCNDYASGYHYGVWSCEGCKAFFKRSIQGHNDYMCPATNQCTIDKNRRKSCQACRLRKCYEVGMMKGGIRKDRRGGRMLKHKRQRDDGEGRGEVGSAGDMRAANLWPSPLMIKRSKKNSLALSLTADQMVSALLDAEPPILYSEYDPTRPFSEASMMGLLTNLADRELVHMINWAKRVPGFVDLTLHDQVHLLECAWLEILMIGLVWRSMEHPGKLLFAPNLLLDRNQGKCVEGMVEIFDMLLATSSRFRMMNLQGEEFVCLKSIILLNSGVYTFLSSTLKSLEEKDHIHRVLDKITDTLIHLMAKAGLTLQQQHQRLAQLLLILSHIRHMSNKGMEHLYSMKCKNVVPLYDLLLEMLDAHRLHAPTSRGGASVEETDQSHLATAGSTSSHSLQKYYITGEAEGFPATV

[8] = molecular target: T3, Vitamin D3 receptor; experiment: (§1) Antagonist activity at human recombinant VDR LBD expressed in HEK293 cells assessed as inhibition of 300 nM 1,25-(OH)2D3-induced transcriptional activation after 16 to 18 hrs by GAL4-dependent luciferase reporter gene assay; assay type: functional, cell-based
[9] = molecular target: T5, Estrogen receptor (Homo sapiens) (UniProt P03372); settings: HEK293, 30 uM
T5 sequence (whole entry): T4 sequence (P03372 whole entry)
Description: Antagonist activity at human recombinant ERalpha LBD expressed in HEK293 cells assessed as inhibition of 0.3 nM estradiol-induced transcriptional activation at 30 uM after 16 to 18 hrs by GAL4-dependent luciferase reporter gene assay

[10] = molecular target: T2, Vitamin D3 receptor (Homo sapiens); experiment: Antagonist activity at human recombinant VDR LBD expressed in HEK293 cells assessed as inhibition of 300 nM 1,25-(OH)2D3-induced transcriptional activation at 30 uM after 16 to 18 hrs by GAL4-dependent luciferase reporter gene assay; assay type: functional, cell-based
[11] = molecular target: T6, Androgen receptor (Homo sapiens, UniProt P10275); experiment: Inhibition of AR
T6 sequence (P10275 whole entry): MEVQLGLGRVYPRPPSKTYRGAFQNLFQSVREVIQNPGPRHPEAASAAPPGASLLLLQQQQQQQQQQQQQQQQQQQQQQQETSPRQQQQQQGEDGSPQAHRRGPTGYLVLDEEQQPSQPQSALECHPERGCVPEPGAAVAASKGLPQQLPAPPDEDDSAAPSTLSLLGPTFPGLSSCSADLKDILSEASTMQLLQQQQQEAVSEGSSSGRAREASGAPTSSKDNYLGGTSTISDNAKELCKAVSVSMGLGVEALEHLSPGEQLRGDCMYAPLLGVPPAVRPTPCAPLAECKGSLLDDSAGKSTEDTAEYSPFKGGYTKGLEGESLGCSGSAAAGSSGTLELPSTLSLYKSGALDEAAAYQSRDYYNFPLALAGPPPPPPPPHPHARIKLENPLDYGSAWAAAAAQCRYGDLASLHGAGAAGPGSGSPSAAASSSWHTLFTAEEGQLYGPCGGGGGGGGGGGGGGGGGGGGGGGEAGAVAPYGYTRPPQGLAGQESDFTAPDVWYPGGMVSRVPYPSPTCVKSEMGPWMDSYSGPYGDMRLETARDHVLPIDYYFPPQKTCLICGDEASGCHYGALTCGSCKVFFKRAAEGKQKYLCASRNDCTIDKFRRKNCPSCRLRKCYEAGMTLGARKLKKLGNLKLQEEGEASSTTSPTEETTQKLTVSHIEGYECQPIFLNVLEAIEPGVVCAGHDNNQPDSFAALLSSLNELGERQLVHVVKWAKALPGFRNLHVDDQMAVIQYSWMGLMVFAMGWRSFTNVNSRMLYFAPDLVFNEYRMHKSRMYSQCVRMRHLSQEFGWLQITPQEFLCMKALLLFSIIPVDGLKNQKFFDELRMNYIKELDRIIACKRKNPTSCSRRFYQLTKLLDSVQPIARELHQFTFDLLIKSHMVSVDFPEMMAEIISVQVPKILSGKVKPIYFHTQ

[12] = molecular target: T4, Estrogen receptor; experiment: Inhibition of ER
[13] = molecular target: T2, Vitamin D3 receptor (Homo sapiens); experiment: as §1; assay type: functional, cell-based
[14] = molecular target: T2, Vitamin D3 receptor (Homo sapiens); experiment: Displacement of 1,25-dihydroxyvitamin D3 from GST-tagged VDR ligand binding domain assessed as inhibition of interaction with coactivator proteins at 10 uM by TR-FRET assay
[15] = molecular target: T2, Vitamin D3 receptor (Homo sapiens); experiment: Antagonist activity at human recombinant VDR LBD expressed in HEK293 cells assessed as inhibition of 3 nM 1,25-(OH)2D3-induced transcriptional activation at 10 uM after 16 to 18 hrs by GAL4-dependent luciferase reporter gene assay; assay type: functional, cell-based
[16] = molecular target: T2, Vitamin D3 receptor (Homo sapiens); experiment: Antagonist activity at human recombinant VDR LBD expressed in HEK293 cells assessed as inhibition of 300 nM 1,25-(OH)2D3-induced transcriptional activation at 10 uM after 16 to 18 hrs by GAL4-dependent luciferase reporter gene assay; assay type: functional, cell-based

Structure (SMILES): CC(C)CNc1cc(CC(C)C)nc(NCC(C)C)n1
Ki [12]: 29 µM

Structure (SMILES): CC(C)CCN1Cc2cc(CC(C)C)c(NCCN)cc2N[C@@H](CC(C)C)C1=O
IC50 [5]: 28 µM

Structure (SMILES): CC(C)CCN1Cc2cc(CC(C)C)c(NCCNC(=O)OC(C)(C)C)cc2N[C@@H](CC(C)C)C1=O
IC50 [5]: 13 µM

Structure (SMILES): C=C1/C(=C\C=C2/CCC[C@]3(C)[C@@H]([C@H](C)C[C@H]4C[C@@](C)(O)C(=O)N4CCc4ccccc4)CC[C@@H]23)C[C@@H](O)C[C@@H]1O
inhibition [14]: 87%
IC50 [4]: 0.22 µM
inhibition [15]: 98%
IC50 [8]: 3.3 µM
inhibition [16]: 66%

Structure (SMILES): CC(C)Cc1cc(O)c(=O)n(Cc2ccc3ccccc3c2)c1-c1ccnc(Cc2ccccc2)c1
Ki [12]: 4.2 µM

Next, values leading:

inhibition [1]: 56%
IC50 [2]: 22 µM
inhibition [3]: 76%
IC50 [4]: 17 µM
IC50 [5]: 20 µM
inhibition [6]: 68%
IC50 [7]: > 30 µM
IC50 [8]: 23 µM
inhibition [9]: 8%
inhibition [10]: 59%
Structure (SMILES): CC(C)=Cc1cc2c(cc1N)N[C@@H](CC(C)C)C(=O)N(CCC(C)C)C2

inhibition [3]: 46%
IC50 [5]: > 30 µM
Structure (SMILES): CC(C)CCN1Cc2cc(CC(C)C)c(NC(=N)N)cc2N[C@@H](CC(C)C)C1=O

Ki [11]: 1.5 µM
Structure (SMILES): CC(C)CNc1cc(CCc2cccc3ccccc23)nc(NCc2cccc3ccccc23)n1

inhibition [3]: 43%
IC50 [5]: > 30 µM
Structure (SMILES): CC(=O)NCCNc1cc2c(cc1CC(C)C)CN(CCC(C)C)C(=O)[C@H](CC(C)C)N2

inhibition [1]: 18%
IC50 [2]: > 30 µM
inhibition [3]: 48%
IC50 [4]: 30 µM
IC50 [5]: 30 µM
inhibition [6]: 47%
IC50 [7]: > 30 µM
IC50 [8]: 30 µM
inhibition [13]: 8%
inhibition [10]: 53%
Structure (SMILES): CC(C)CCN1Cc2cc(CC(C)C)c(N)cc2N[C@@H](CC(C)C)C1=O
